This passage reports EC50 results from patent publication US20120040951A1, “HETEROARYL COMPOUNDS USEFUL AS RAF KINASE INHIBITORS” (priority 2008, published 2012).

This test relates to phospho-ERK in melanoma derived WM-266-4 cells. The test can be described thus: Mechanistic cellular assay for Raf kinase activity (phospho-ERK, Bio-Plex). The class given is cell-based. Particulars: Homo sapiens, treated 1-2 hr at 37° C., serum free medium, read-out: pERK EC50. The source says:
(2) Mechanistic Cellular Assay for Raf Kinase Activity
The following method was utilized for quantifying the amount of phospho-ERK in melanoma derived WM-266-4 cells (one allele each of wild type BRaf and mutant BRaf (V600D) as an indicator of Raf kinase activity in cells treated with various kinase inhibitors.
(1) Detached adhered WM-266-4 cells from flask using 0.25% Trypsin. Resuspended cells in growth media (90% RPMI 1640, 10% FBS) and determine cell density.
(2) Seeded cells @ 10,000 cells/well in 96-well (flat bottom) tissue culture plates (36,000 cells/cm^2). Added growth media to a final volume of 200 uL/well and incubated overnight at 37° C.
(1) Prepared compound dilutions (1000× in DMSO) as follows. Starting with a stock of 5 mM compound in DMSO, diluted serially 3-fold in DMSO for a total of eight concentrations (5 mM, 1.67 mM, 0.556 mM, 0.185 mM, 0.062 mM, 0.021 mM, 0.007 mM, 0.002 mM).
(2) Prepared compound-containing media by adding 1 mL treatment media (100% RPMI 1640 without FBS) to 1 μL of compound dilution (from step 3).
(3) Removed plates (from step 2) from incubator. Aspirated media and replace with 150 μL compound-containing media. Incubate for 1-2 hr at 37° C.
(4) Removed plates (from step 5) from incubator and treated each as follows: aspirated compound-containing media and replaced with 300 μL ice-cold 1×PBS, aspirated PBS and replaced with 45 μL lysis buffer (Biorad Bio-Plex lysis buffer containing 0.4% v/v lysis buff. Factor 1, 0.2% v/v lysis buff. Factor 2, and PMSF to 2 mM final concentration), and then placed plate on ice until all plates were treated.
(5) After all plates were processed (step 6), placed plates on an orbital shaker and shook at room temperature for at least 15 min.
(6) Finally, removed plates from shaker, and transfered 40 μL/well of lysate from each to new corresponding 96-well V-bottom plates. At this point, samples may be frozen and stored @−80 C.°.
(1) Thaw (if necessary) plates (from step 8) and added 40 μL of Phospho-Protein Assay Buffer to each 40 μL lysate for a 1:1 dilution.
(2) Prepared phospho-ERK1,2 Bioplex beads by diluting 1:50 with Bioplex Wash Buffer (mixing 49 μL Wash Buffer with 1 μL of phospho-ERK1,2 Bioplex beads for each sample to be analyzed). Protected from light by wrapping tube in aluminum foil and kept at room temperature.
(3) Prepared Filter Plate by adding 100 μL/well Bioplex Wash Buffer and removed by vacuum filtration.
(4) Add 50 μL of bead solution (from step 10) to each well of a prepared Filter Plate (from step 11) and vacuum filter. Wash/filter 2× with 100 μL/well Wash Buffer.
(5) Added 50 μL of each lysate to appropriate well of the Filter Plate (from step 12). For this and all subsequent plate incubation steps, placed plate on an inverted plate cover (reduces background), and wrapped in aluminum foil (to protect from light). Shook overnight at room temperature. Included positive (control lysate) and negative (lysis buffer) controls.
(1) Prepared detection antibody (phospho-ERK1,2 Ab) by diluting 1:25 with Detection Antibody Dilution Buffer Buffer (mixing 24 μL Detection Antibody Dilution Buffer with 1 μL of phospho-ERK1,2 Ab for each sample to be analyzed).
(2) Removed plate (from step 13) from shaker and vacuum filter. Washed/filter plate 3× with 100 μL/well Wash Buffer. Added 25 μL of diluted antibody to each well. Incubated on shaker at RT for 30-45 min.
(3) Prepared streptavidin-PE by diluting 1:100 with Wash Buffer (mixing 49.5 μL Wash Buffer with 0.5 μL of 100× streptavidin-PE for each sample to be analyzed). Protected from light.
(4) Removed plate (from step 15) from shaker and vacuum filter. Washed/filter plate 3× with 100 μL/well Wash Buffer. Add 50 μL of diluted streptavidin-PE solution (from step 16) to each sample well. Incubated on shaker for 10-20 min.
(5) Removed plate from shaker and vacuum filter. Wash/filter plate 3× with 100 μL/well Bead Resuspension Buffer. After last wash resuspended beads in 125 μL Bead Resuspension Buffer. […]
As for `C[C@H](NC(=O)c1cc2c(cn1)ncn2C)c1cnc(Nc2ccc(C(F)(F)F)cc2)cn1` (single isomer, unassigned) [Example 36], the EC50 lay within 1000 to 10000 nM.
In the case of `C[C@@H](NC(=O)c1cc2c(cn1)ncn2C)c1cnc(Nc2ccc(Cl)c(C(F)(F)F)c2)cn1` (single isomer, unassigned) [Example 236] it was not above 100 nM.
In the case of `C[C@H](NC(=O)c1cc2c(cn1)ncn2C)c1cnc(Nc2ccc(Cl)c(C(F)(F)F)c2)cn1` (single isomer, unassigned) [Example 237] it was 1000 to 10000 nM; in that of `CC(NC(=O)c1cc2c(cn1)ncn2CCN1CCOCC1)c1cnc(Nc2ccc(C(F)(F)F)cc2)s1` (centres unmarked) [Example 8], not above 100 nM.
For the compound `CC(NC(=O)c1cc2c(cn1)ncn2C1CCOCC1)c1cnc(Nc2ccc(C(F)(F)F)cc2)s1` (centres unmarked) [Example 9], the EC50 is not above 100 nM.
In the case of `Cc1nc2cnc(C(=O)NC(C)c3cnc(Nc4ccc(C(F)(F)F)cc4)s3)cc2n1C` (centres unmarked) [Example 10], the EC50 is 100 to 1000 nM.
Turning to `CC(NC(=O)c1cc2c(cn1)ncn2C1CCN(C)CC1)c1cnc(Nc2ccc(C(F)(F)F)cc2)s1` (centres unmarked) [Example 11], the half-maximal effective concentration (EC50) fell in the range of 100 to 1000 nM.
For the compound `CC(NC(=O)c1cc2c(cn1)ncn2C(C)C)c1cnc(Nc2ccc(C(F)(F)F)cc2)s1` (centres unmarked) [Example 12], the EC50 was not above 100 nM.
To `CC(NC(=O)c1cc2c(cn1)ncn2C(C)(C)C)c1cnc(Nc2ccc(C(F)(F)F)cc2)s1` (centres unmarked) [Example 13] belongs not above 100 nM.
To `CC(NC(=O)c1cc2c(cn1)ncn2C1CCC1)c1cnc(Nc2ccc(C(F)(F)F)cc2)s1` (centres unmarked) [Example 14] belongs not above 100 nM; to `CC(C)Cn1cnc2cnc(C(=O)NC(C)c3cnc(Nc4ccc(C(F)(F)F)cc4)s3)cc21` (centres unmarked) [Example 15], not above 100 nM; to `CC(NC(=O)c1cc2c(cn1)ncn2CC(C)(C)C)c1cnc(Nc2ccc(C(F)(F)F)cc2)s1` (centres unmarked) [Example 16], 100 to 1000 nM.
For `CC(NC(=O)c1cc2c(cn1)ncn2C1CCCC1)c1cnc(Nc2ccc(C(F)(F)F)cc2)s1` (centres unmarked) [Example 17], the EC50 was not above 100 nM.
In the case of `CC(NC(=O)c1cc2c(cn1)ncn2C1CCCCC1)c1cnc(Nc2ccc(C(F)(F)F)cc2)s1` (centres unmarked) [Example 18] it was 100 to 1000 nM.
As to `CC(NC(=O)c1cc2c(cn1)ncn2C1CC1)c1cnc(Nc2ccc(C(F)(F)F)cc2)s1` (centres unmarked) [Example 19], the EC50 was not above 100 nM.
As to `CCn1cnc2cnc(C(=O)N[C@H](C)c3cnc(Nc4ccc(C(F)(F)F)cc4)s3)cc21` [Example 20], the concentration for a half-maximal effect (EC50) is not above 100 nM.
In the case of `CC(NC(=O)c1cc2c(cn1)ncn2CCNC(=O)OC(C)(C)C)c1cnc(Nc2ccc(C(F)(F)F)cc2)s1` (centres unmarked) [Example 21] it was 100 to 1000 nM; in that of `C[C@@H](NC(=O)c1cc2c(cn1)ncn2[C@@H]1CCN(C(=O)OC(C)(C)C)C1)c1cnc(Nc2ccc(C(F)(F)F)cc2)s1` [Example 22], 100 to 1000 nM; in that of `CC(NC(=O)c1cc2c(cn1)ncn2CCN)c1cnc(Nc2ccc(C(F)(F)F)cc2)s1` (centres unmarked) [Example 23], 100 to 1000 nM.
Turning to `CCn1cnc2cnc(C(=O)NC(C)c3cnc(Nc4ccc(C(F)(F)F)cc4)cn3)cc21` (centres unmarked) [Example 38], the EC50 was not above 100 nM.
To `C[C@@H](NC(=O)c1cc2nc[nH]c2cn1)c1ncc(C(=O)Nc2cc(C(F)(F)F)c(Cl)cn2)s1` [Example 39] belongs not above 100 nM; to `CC(NC(=O)c1cc2c(cn1)ncn2C)c1ncc(C(=O)Nc2cc(C(F)(F)F)c(Cl)cn2)s1` (centres unmarked) [Example 40], not above 100 nM; to `CC(NC(=O)c1cccc(N2CCOCC2)c1)c1ncc(C(=O)Nc2cc(C(F)(F)F)c(Cl)cn2)s1` (centres unmarked) [Example 45], 1000 to 10000 nM.
In the case of `CC(NC(=O)c1cccc(CN2CCOCC2)c1)c1ncc(C(=O)Nc2cc(C(F)(F)F)c(Cl)cn2)s1` (centres unmarked) [Example 46] it was 1000 to 10000 nM.
In the case of `CC(NC(=O)c1cccc(-c2cccnc2)c1)c1ncc(C(=O)Nc2cc(C(F)(F)F)c(Cl)cn2)s1` (centres unmarked) [Example 47] it was 100 to 1000 nM.
Turning to `CC(NC(=O)c1cccc(-n2ccnc2)c1)c1ncc(C(=O)Nc2cc(C(F)(F)F)c(Cl)cn2)s1` (centres unmarked) [Example 48], the EC50 lay within 100 to 1000 nM.
